Reference: US5804603A, “Synthesized β-adrenergic blockers derivatives of guaiacol” (National Science Council, priority 1995, dated 1998)
Like-named read-outs stand apart in the source and are kept apart here.

Key:
[1] = test system: heart rate and blood pressure; test: Heart rate and blood pressure changes of rats induced by guaiacoxypropanolamines; assay type: in vivo; conditions: 1.0 mg/kg iv, means ± SE (n = 8)
[2] = target: T1, Isolated Guinea Pig Atria (Cavia porcellus, UniProt H0W3H1); test: pA2 on isolated guinea pig atria; assay type: cell-based; conditions: for Kb / pA2, positive chronotropic / pA2, positive inotropic: isolated guinea pig atria; for Potency ratio (PR), positive chronotropic / Potency ratio (PR), positive inotropic: with respect to propranolol
T1 construct: Isolated Guinea Pig Atria; from tissue; host or cells: guinea pig atria (isolated organ)
Description: The determination of the pA2 is made from experiments in which a fixed concentration of the antagonist is used along with graded concentrations of an agonist acting on the same receptor. The presence of the antagonist shifts the agonist dose-response curve to the right.

[3] = read-out: pA2, positive chronotropic (converted)
[4] = read-out: pA2, positive inotropic (converted)

T1 sequence (H0W3H1 1-470): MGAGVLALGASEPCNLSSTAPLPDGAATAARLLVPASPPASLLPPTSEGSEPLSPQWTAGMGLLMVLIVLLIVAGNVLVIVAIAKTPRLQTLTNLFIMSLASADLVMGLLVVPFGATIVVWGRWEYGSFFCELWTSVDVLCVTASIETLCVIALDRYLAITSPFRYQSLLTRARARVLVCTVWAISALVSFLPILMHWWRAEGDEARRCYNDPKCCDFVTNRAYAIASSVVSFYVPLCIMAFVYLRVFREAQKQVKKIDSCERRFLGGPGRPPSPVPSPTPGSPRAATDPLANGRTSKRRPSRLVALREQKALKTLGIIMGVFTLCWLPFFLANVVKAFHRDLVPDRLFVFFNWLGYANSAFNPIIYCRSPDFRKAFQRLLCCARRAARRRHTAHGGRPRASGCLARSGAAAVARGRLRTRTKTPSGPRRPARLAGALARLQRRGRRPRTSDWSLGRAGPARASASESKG

Row | Compound | Kb [2, 3] [µM] | Kb [2, 4] [µM] | Potency ratio (PR), positive chronotropic [2] | Potency ratio (PR), positive inotropic [2] | pA2, positive chronotropic [2] | pA2, positive inotropic [2] | change in BP ([1]; 5 min after dosing) [mmHg] | change in HR ([1]; 5 min after dosing) [beats/min] | change in BP ([1]; 10 min after dosing) [mmHg] | change in HR ([1]; 10 min after dosing) [beats/min] | change in BP ([1]; 15 min after dosing) [mmHg] | change in HR ([1]; 15 min after dosing) [beats/min] | change in BP ([1]; 30 min after dosing) [mmHg] | change in HR ([1]; 30 min after dosing) [beats/min] | change in BP ([1]; 60 min after dosing) [mmHg] | change in HR ([1]; 60 min after dosing) [beats/min]
1 | CCCCCCCCC(=O)NCc1ccc(OCC(O)CNC(C)C)c(OC)c1 (stereo not drawn) [NH-i-C3 H7, N-[4-o-(2-hydroxy-3-(isopropylamino)propoxy)-3-methoxybenzyl]-nonamide] | 0.017 | 0.00851 | 0.45 | 0.45 | – | – | -0.44 ± 2.05 | -50.22 ± 7.29 | -1.22 ± 2.29 | -40.78 ± 7.64 | -2.89 ± 2.03 | -35.44 ± 7.32 | -6.67 ± 2.51 | -32.67 ± 9.24 | -1.33 ± 0.98 | -20.00 ± 6.15
2 | CCCCCCCCC(=O)NCc1ccc(OCC(O)CNCCCC)c(OC)c1 (stereo not drawn) [NH-n-C4 H9, N-[4-o-(2-hydroxy-3-(n-butylamino)propoxy)-3-methoxybenzyl]-nonamide] | 0.0589 | 0.0537 | 0.13 | 0.07 | – | – | -0.22 ± 1.74 | -40.00 ± 3.74 | -1.22 ± 1.59 | -33.78 ± 5.08 | -1.22 ± 1.77 | -26.22 ± 6.56 | 0.11 ± 1.54 | -15.33 ± 5.24 | 3.33 ± 2.82 | -3.67 ± 2.55
3 | N-[4-0-(2-hydroxy-3-(3-aminopentylamino)propoxy)-3-methoxybenzyl-]-nonamide [NHC5 H11] | – | – | 0.14 | 0.07 | 7.25 ± 0.10 | 7.26 ± 0.08 | -2.78 ± 2.33 | -28.11 ± 9.34 | -2.56 ± 1.42 | -28.89 ± 6.30 | -3.22 ± 1.78 | -22.78 ± 5.04 | -1.33 ± 1.38 | -2.22 ± 7.28 | 0.67 ± 0.47 | -3.33 ± 5.69
4 | CCCCCCCCC(=O)NCc1ccc(OCC(O)CNCCCCC)c(OC)c1 (stereo not drawn) [NH-n-C5 H11, N-[4-o-(2-hydroxy-3-(n-pentylamino)propoxy)-3-methoxybenzyl]-nonamide] | – | – | 0.12 | 0.14 | 7.19 ± 0.02 | 7.55 ± 0.04 | -4.67 ± 1.71 | -25.11 ± 5.81 | -1.67 ± 1.87 | -23.33 ± 2.41 | -0.88 ± 3.00 | -10.22 ± 2.38 | 3.67 ± 2.66 | -5.78 ± 7.89 | 2.44 ± 1.96 | -6.56 ± 4.38
5 | CCCCCCCCC(=O)NCc1ccc(OCC(O)CNCCC)c(OC)c1 (stereo not drawn) [NH-n-C3 H7, N-[4-o-(2-hydroxy-3-(n-propylamino)propoxy)-3-methoxybenzyl]-nonamide] | – | – | 0.05 | 0.21 | 6.79 ± 0.01 | 7.75 ± 0.07 | -1.78 ± 1.71 | -42.56 ± 7.65 | -2.56 ± 1.47 | -35.33 ± 6.05 | -3.11 ± 1.81 | -32.00 ± 5.25 | -2.44 ± 1.66 | -14.11 ± 5.16 | -0.56 ± 0.50 | -6.89 ± 4.32
6 | CCCCCCCCC(=O)NCc1ccc(OCC(O)CNCC(C)C)c(OC)c1 (stereo not drawn) [NH-i-C4 H9, N-[4-o-(2-hydroxy-3-(iso-butylamino)propoxy)-3-methoxybenzyl]-nonamide] | 0.117 | 0.0269 | 0.06 | 0.14 | – | – | -2.75 ± 2.29 | -39.88 ± 8.60 | 1.63 ± 2.07 | -35.25 ± 7.98 | 1.63 ± 1.71 | -27.13 ± 7.76 | 2.00 ± 1.86 | 4.13 ± 8.20 | 0.25 ± 1.91 | 3.13 ± 7.90
7 | CCCCCCCCC(=O)NCc1ccc(OCC(O)CNC2CC2)c(OC)c1 (stereo not drawn) [NH-c-C3 H5, N-[4-o-(2-hydroxy-3-(cyclopropylamino)propoxy)-3-methoxybenzyl]-nonamide] | – | – | – | – | – | – | -0.11 ± 1.09 | -47.67 ± 8.88 | 3.11 ± 2.78 | -38.89 ± 9.47 | 3.89 ± 2.92 | -23.67 ± 10.01 | 3.67 ± 4.10 | -11.89 ± 8.73 | 2.22 ± 2.32 | -2.67 ± 4.14
8 | CCCCCCCCC(=O)NCc1ccc(OCC(O)CNC2CCCCC2)c(OC)c1 (stereo not drawn) [NH-c-C6 H11, N-[4-o-(2-hydroxy-3-(cyclohexylamino)propoxy)-3-methoxybenzyl]-nonamide] | – | – | – | – | – | – | -4.11 ± 2.89 | -32.33 ± 15.44 | -4.22 ± 2.29 | -28.44 ± 16.54 | -3.67 ± 2.39 | -11.67 ± 9.26 | 1.33 ± 2.69 | -1.78 ± 8.96 | 0.67 ± 2.45 | 2.78 ± 9.64

The next lines start with results.

Row | Kb [2, 3] [µM] | Kb [2, 4] [µM] | Potency ratio (PR), positive chronotropic [2] | Potency ratio (PR), positive inotropic [2] | pA2, positive chronotropic [2] | pA2, positive inotropic [2] | Compound | change in BP ([1]; 5 min after dosing) [mmHg] | change in HR ([1]; 5 min after dosing) [beats/min] | change in BP ([1]; 10 min after dosing) [mmHg] | change in HR ([1]; 10 min after dosing) [beats/min] | change in BP ([1]; 15 min after dosing) [mmHg] | change in HR ([1]; 15 min after dosing) [beats/min] | change in BP ([1]; 30 min after dosing) [mmHg] | change in HR ([1]; 30 min after dosing) [beats/min] | change in BP ([1]; 60 min after dosing) [mmHg] | change in HR ([1]; 60 min after dosing) [beats/min]
9 | 0.12 | 0.0224 | 0.07 | 0.17 | – | – | CCCCCCCCC(=O)NCc1ccc(OCC(O)CNC(C)CC)c(OC)c1 (stereo not drawn) [NH-s-C4 H9, N-[4-o-(2-hydroxy-3-(sec-butylamino)propoxy)-3-methoxybenzyl]-nonamide] | 4.11 ± 2.76 | -38.56 ± 11.30 | 4.89 ± 3.37 | -35.44 ± 12.46 | 3.33 ± 3.74 | -32.33 ± 11.96 | -0.88 ± 3.11 | -25.11 ± 9.49 | 1.22 ± 1.47 | -9.56 ± 7.03
10 | 0.933 | 0.0661 | 0.01 | 0.06 | – | – | CCCCCCCCC(=O)NCc1ccc(OCC(O)CNCCCCCC)c(OC)c1 (stereo not drawn) [NH-n-C6 H13, N-[4-o-(2-hydroxy-3-(n-hexylamino)propoxy)-3-methoxybenzyl]-nonamide] | -2.22 ± 1.42 | -35.56 ± 8.71 | -2.89 ± 1.61 | -24.11 ± 3.31 | -4.44 ± 2.93 | -14.89 ± 7.10 | -2.11 ± 2.77 | -12.67 ± 6.59 | 1.89 ± 1.13 | -8.00 ± 5.64
11 | 0.0398 | 0.0158 | 0.19 | 0.24 | – | – | CCCCCCCCC(=O)NCc1ccc(OCC(O)CNC(C)(C)C)c(OC)c1 (stereo not drawn) [NH-t-C4 H9, N-[4-o-(2-hydroxy-3-(tert-butylamino)propoxy)-3-methoxybenzyl]-nonamide] | 3.13 ± 5.66 | -45.00 ± 4.20 | 3.38 ± 5.08 | -37.75 ± 4.44 | 2.38 ± 5.41 | -29.50 ± 5.31 | 1.25 ± 5.45 | -24.88 ± 8.47 | 4.63 ± 3.51 | -18.50 ± 5.13
12 | 0.295 | 0.0741 | 0.03 | 0.05 | – | – | CCCCCCCCC(=O)NCc1ccc(OCC(O)CNC)c(OC)c1 (stereo not drawn) [NHCH3, N-[4-o-(2-hydroxy-3-(methylamino)propoxy)-3-methoxybenzyl]-nonamide] | -1.11 ± 2.31 | -34.56 ± 6.79 | -0.22 ± 2.10 | -17.33 ± 5.31 | -0.56 ± 1.65 | -12.22 ± 4.33 | 1.89 ± 2.14 | 14.56 ± 7.73 | 0.78 ± 1.37 | 4.78 ± 4.37
13 | – | – | 0.07 | 0.07 | 6.93 ± 0.09 | 7.27 ± 0.09 | CCCCCCCCC(=O)NCc1ccc(OCC(O)CNCC)c(OC)c1 (stereo not drawn) [NHC2 H5, N-[4-o-(2-hydroxy-3-(ethylamino)propoxy)-3-methoxybenzyl]-nonamide] | 7.44 ± 3.16 | -38.33 ± 5.94 | 2.56 ± 2.56 | -32.22 ± 5.36 | 1.11 ± 1.78 | -28.00 ± 7.02 | -2.44 ± 3.05 | -21.11 ± 8.75 | 1.88 ± 1.62 | 2.56 ± 11.66
